Test results taken from ChEMBL document CHEMBL1137495, “Synthesis and TNF expression inhibitory properties of new thalidomide analogues derived via Heck cross coupling” (2007).
Active and inactive are the calls of the source. No cut-off for these calls is given here.

Tests used:
[1] = tested on: Jurkat; test: Inhibition of TNF gene expression in FRT Jurkat TNF reporter cells at 100 uM; assay type: functional; details: Homo sapiens
[2] = tested on: Jurkat; test: Increase in Cytotoxicity in human FRT Jurkat TNF reporter cell at 100 uM; assay type: functional, cell-based
[3] = tested on: Jurkat; test: Increase in cell death in human FRT Jurkat TNF reporter cell; assay type: functional, cell-based
[4] = tested on: Jurkat; test: Inhibition of TNF gene expression in FRT Jurkat TNF reporter cells at 10 uM; assay type: functional; details: Homo sapiens
[5] = tested on: Jurkat; test: Increase in inhibition of TNF gene expression in FRT Jurkat TNF reporter cells after 30 hrs; assay type: functional, cell-based; details: Homo sapiens
[6] = tested on: Jurkat; test: Viability of the FRT Jurkat TNF reporter cells at 1 uM; assay type: functional, Homo sapiens
[7] = tested on: Jurkat; test: Inhibition of TNF gene expression in FRT-Jurkat TNF reporter cells at 1 uM; assay type: functional; details: Homo sapiens

| Structure (SMILES) | inhibition at 100 µM [1] [%] | also measured |
| --- | --- | --- |
| COC(=O)/C=C/c1ccc2c(c1)C(=O)N(C1CCC(=O)NC1=O)C2=O (centres undefined) | 39 |  |
| O=C1CCC(N2C(=O)c3ccc(/C=C/C4CC=CO4)cc3C2=O)C(=O)N1 (centres undefined) | 40 |  |
| O=C1C=C(c2cccc(N3C(=O)c4ccccc4C3=O)c2)CCC1 | 47 |  |
| CCCCOC(=O)/C=C/c1cccc(N2C(=O)c3ccccc3C2=O)c1 | 35 |  |
| CCCCOC(=O)/C=C/c1ccc2c(c1)C(=O)N(C1CCC(=O)NC1=O)C2=O (centres undefined) | 42 |  |
| O=C1CCC(N2C(=O)c3cccc(/C=C/N4CCCC4=O)c3C2=O)C(=O)N1 (centres undefined) | 38 |  |
| O=C1c2ccccc2C(=O)N1c1cccc(I)c1 | 37 |  |
| O=C1c2ccccc2C(=O)N1c1ccccc1I | 40 |  |
| COC(=O)/C=C/c1ccccc1N1C(=O)c2ccccc2C1=O | 48 |  |
| O=C1c2ccccc2C(=O)N1c1ccc(C2CC=CO2)cc1 (centres undefined) | 38 |  |
| CCCCO/C=C/c1cccc2c1C(=O)N(C1CCC(=O)NC1=O)C2=O (centres undefined) | 47 |  |
| CCCCO/C=C/c1cccc(N2C(=O)c3ccccc3C2=O)c1 | 49 |  |
| CCCCO/C=C/c1ccc2c(c1)C(=O)N(C1CCC(=O)NC1=O)C2=O (centres undefined) | 69 | Activity [2]: Active; Activity [3]: Active; inhibition at 10 µM [4]: 52%; Activity [5]: Dose-dependent effect; Activity [6]: 100%; inhibition at 1 µM [7]: 32% |
| O=C1c2ccccc2C(=O)N1c1ccc(I)cc1 | 36 |  |
| CCCCO/C=C/c1ccc(N2C(=O)c3ccccc3C2=O)cc1 | 48 |  |
| O=C1CCC(N2C(=O)c3ccccc3C2=O)C(=O)N1 (centres undefined) [THALIDOMIDE] | 38 | inhibition at 10 µM [4]: 35%; inhibition at 1 µM [7]: 31% |

| Structure (SMILES) | inhibition at 100 µM [1] [%] | also measured |
| --- | --- | --- |
| O=C1C=C(c2ccc3c(c2)C(=O)N(C2CCC(=O)NC2=O)C3=O)CCC1 (centres undefined) | 35 |  |
| O=C1CCC(N2C(=O)c3ccc(Br)cc3C2=O)C(=O)N1 (centres undefined) | 35 |  |
| CCCCOC(=O)/C=C/c1cccc2c1C(=O)N(C1CCC(=O)NC1=O)C2=O (centres undefined) | 44 |  |
| CCCCOC(=O)/C=C/c1ccccc1N1C(=O)c2ccccc2C1=O | 52 |  |
| CCCCO/C=C/c1ccccc1N1C(=O)c2ccccc2C1=O | 47 |  |
| O=C1CCC(N2C(=O)c3cccc(I)c3C2=O)C(=O)N1 (centres undefined) | 37 |  |
| O=C1CCC(N2C(=O)c3ccc(/C=C/N4CCCC4=O)cc3C2=O)C(=O)N1 (centres undefined) | 36 |  |
| O=C1c2ccccc2C(=O)N1c1cccc(C2CC=CO2)c1 (centres undefined) | 50 |  |
| COC(=O)/C=C/c1cccc(N2C(=O)c3ccccc3C2=O)c1 | 44 |  |
| O=C1CCCN1/C=C/c1cccc(N2C(=O)c3ccccc3C2=O)c1 | 36 |  |
| O=C1CCC(N2C(=O)c3cccc(C4CC=CO4)c3C2=O)C(=O)N1 (centres undefined) | 50 |  |
| O=C1C=C(c2cccc3c2C(=O)N(C2CCC(=O)NC2=O)C3=O)CCC1 (centres undefined) | 38 |  |
| COC(=O)/C=C/c1ccc(N2C(=O)c3ccccc3C2=O)cc1 | 41 |  |
| COC(=O)/C=C/c1cccc2c1C(=O)N(C1CCC(=O)NC1=O)C2=O (centres undefined) | 40 |  |
| CCCCOC(=O)/C=C/c1ccc(N2C(=O)c3ccccc3C2=O)cc1 | 35 |  |
